The source of these data is paper PMC3992512 (British Journal of Cancer, 2014).

By half-life is commonly meant the time in which the quantity being followed falls by half. A low value points to rapid decline. By inhibition is commonly meant the relative decrease from the control value, in per cent.

“And” between values parts separate entries of the source, which are not always exact repeats. Equal values may be shown once. “Also recorded” adds a separate entry of the source. Read-outs that look alike come from different tables or passages of the source.

Data set [1] is described as follows: Plasma pharmacokinetics and tissue distribution in Capan-1 tumour-bearing mice. The data set is classed as in vivo.
In data set [2] the target is T1, PARP (Homo sapiens, UniProt P09874). Description: PARP activity in permeabilised or intact Capan-1 cells with carboxy metabolite. It is filed as cell-based.
For data set [3] the following is noted: pre-clinical studies; ref Calabrese et al, 2004; cited from earlier work.
Another data set deals with SW620 cells. Description: [14C]rucaparib uptake and retention in SW620 cells. The data set is classed as in vitro ADME, human. The note with it: for effect of transport inhibitor on rucaparib uptake: ouabain 30 or 100 μM, cytochalasin B 0.1 or 1 μM, dipyridamole 10 or 100 μM, BCH 1 or 2 mM.
Data set [4] deals with MX-1 xenografts. The note with it: ref Shen et al, 2013, cited from earlier work.
Data set [5] can be described thus: [14C]rucaparib uptake and retention in SW620 cells. It is filed as in vitro ADME, human. The note with it: human, SW620 cells.
Data set [6] relates to Poly(ADP-ribose) polymerase-1. It is filed as in vivo, mice.
For data set [7], the target named is T2, Poly(ADP-ribose) polymerase-1 (Mus musculus, UniProt P11103). The data set is classed as in vivo, mice. The note with it: 24 h after single dose 150 mg kg−1 p.o. or 50 mg kg−1 i.p.
Data set [8] has as its system Capan-1 xenografts. Description: Efficacy study in mice bearing Capan-1 xenografts. The data set is classed as in vivo.
In data set [9] the test system is Capan-1 xenografts. The note with it: ref Drew et al, 2011; cited from earlier work.
The test system of data set [10] is MX-1 xenografts. The experiment in a line: Efficacy study in mice bearing MX-1 xenografts. The data set is classed as in vivo. The settings on record: MX-1 tumour-bearing mice.
Data set [11] deals with T1, PARP. The settings on record: patients, after five daily doses; ref Plummer et al, 2008; cited from earlier work.
Data set [12] has as its system Poly(ADP-ribose) polymerase-1. The experiment in a line: in vivo. It is filed as in vivo, mice. The settings on record: for PARP activity in tumours, % of control: 7 days.
Data set [13] has as its target T2, Poly(ADP-ribose) polymerase-1. Description: in vivo. It is filed as in vivo, mice.
Data set [14] has as its target Poly(ADP-ribose) polymerase-1 (Homo sapiens, UniProt P09874). Description: PARP activity in cancer cell lines after a 30-min pulse of rucaparib. The data set is classed as cell-based.
[15] abbreviates: SW620 cells, 400 nM [14C]rucaparib.
[16] abbreviates: 10 mg kg−1 i.p. daily × five weekly × six.
The mark [17] stands for this setting: Capan-1 and MX-1 cells, 30-min pulse with 400 nM.

T2 sequence (P11103 2-1013): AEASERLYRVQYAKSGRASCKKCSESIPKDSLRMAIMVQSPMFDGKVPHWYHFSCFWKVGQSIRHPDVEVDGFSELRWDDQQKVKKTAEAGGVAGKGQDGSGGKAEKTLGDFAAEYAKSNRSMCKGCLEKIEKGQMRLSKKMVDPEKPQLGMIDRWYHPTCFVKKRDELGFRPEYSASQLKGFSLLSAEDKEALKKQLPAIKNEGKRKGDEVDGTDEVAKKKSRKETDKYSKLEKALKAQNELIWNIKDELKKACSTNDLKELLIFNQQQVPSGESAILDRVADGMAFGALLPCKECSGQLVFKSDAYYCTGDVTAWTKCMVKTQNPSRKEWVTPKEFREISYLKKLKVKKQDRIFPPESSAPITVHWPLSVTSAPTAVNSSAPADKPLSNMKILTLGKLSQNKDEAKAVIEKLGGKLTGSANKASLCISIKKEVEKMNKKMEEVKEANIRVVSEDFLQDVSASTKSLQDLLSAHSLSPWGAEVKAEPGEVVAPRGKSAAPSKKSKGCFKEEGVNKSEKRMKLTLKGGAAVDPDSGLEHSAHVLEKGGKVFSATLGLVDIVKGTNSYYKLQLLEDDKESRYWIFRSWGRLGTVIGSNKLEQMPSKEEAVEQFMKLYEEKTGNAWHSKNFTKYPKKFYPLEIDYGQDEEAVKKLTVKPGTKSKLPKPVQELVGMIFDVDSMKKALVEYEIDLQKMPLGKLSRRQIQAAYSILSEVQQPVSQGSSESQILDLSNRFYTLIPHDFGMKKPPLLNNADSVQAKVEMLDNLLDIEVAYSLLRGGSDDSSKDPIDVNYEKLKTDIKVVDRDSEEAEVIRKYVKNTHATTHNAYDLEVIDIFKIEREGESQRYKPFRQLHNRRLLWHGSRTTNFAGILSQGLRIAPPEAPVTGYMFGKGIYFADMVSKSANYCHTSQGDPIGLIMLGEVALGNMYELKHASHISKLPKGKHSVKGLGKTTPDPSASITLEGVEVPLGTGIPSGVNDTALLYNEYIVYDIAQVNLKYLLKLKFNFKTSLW
Sequence of Poly(ADP-ribose) polymerase-1 (Homo sapiens, UniProt P09874) (P09874 whole entry): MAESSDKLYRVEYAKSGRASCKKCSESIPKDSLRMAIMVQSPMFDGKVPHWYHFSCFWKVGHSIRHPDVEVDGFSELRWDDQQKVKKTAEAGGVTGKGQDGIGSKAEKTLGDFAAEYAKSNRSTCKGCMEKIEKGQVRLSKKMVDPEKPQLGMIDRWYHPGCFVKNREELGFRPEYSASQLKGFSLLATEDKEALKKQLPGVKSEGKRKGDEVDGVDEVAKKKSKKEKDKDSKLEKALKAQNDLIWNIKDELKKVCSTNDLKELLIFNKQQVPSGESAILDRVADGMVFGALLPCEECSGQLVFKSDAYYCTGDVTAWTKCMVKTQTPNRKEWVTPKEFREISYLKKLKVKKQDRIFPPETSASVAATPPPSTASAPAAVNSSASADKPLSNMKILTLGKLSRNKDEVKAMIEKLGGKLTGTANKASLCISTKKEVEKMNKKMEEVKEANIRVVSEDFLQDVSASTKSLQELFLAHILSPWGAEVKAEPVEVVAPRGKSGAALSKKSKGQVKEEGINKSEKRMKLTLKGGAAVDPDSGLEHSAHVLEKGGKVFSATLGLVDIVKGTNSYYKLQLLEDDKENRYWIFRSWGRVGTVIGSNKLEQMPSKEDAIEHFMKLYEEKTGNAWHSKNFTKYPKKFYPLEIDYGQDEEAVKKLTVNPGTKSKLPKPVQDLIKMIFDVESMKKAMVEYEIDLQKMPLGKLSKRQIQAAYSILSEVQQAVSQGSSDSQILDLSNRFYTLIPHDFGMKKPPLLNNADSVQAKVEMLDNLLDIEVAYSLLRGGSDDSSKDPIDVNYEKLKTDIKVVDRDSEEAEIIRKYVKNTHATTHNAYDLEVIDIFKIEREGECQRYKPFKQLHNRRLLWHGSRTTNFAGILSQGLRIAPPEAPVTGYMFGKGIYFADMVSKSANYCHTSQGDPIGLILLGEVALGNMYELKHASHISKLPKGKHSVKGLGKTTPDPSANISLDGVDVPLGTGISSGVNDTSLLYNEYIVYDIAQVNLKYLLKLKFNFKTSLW
T1 sequence (P09874 whole entry): as above

In the case of `O=C(O)c1ccc(-c2[nH]c3cc(F)cc4c3c2CCNC4=O)cc1` [4-(8-fluoro-6-oxo-3,4,5,6-tetrahydro-1H-azepino[5,4,3-cd]indol-2-yl)benzoic acid], in data set [1] (after single dose of rucaparib), the “metabolite concentration relative to parent drug in plasma” value is “higher concentrations than the parent drug in the plasma” and the “metabolite concentration relative to parent drug in tumour” value was “lower in the tumour”. For the same compound, the “PARP inhibition after pre-incubation of intact cells” value on PARP [2] is “did not result in PARP inhibition”.

Consider `CN(C)Cc1ccc(-c2nc3cccc4c3n2CCNC4=O)cc1` [AG14361], for which the “tumour distribution and retention” value in data set [3] is “distributed well to the tumour and was retained in the tumour after clearance from the plasma”.

Regarding `NC1(C(=O)O)CC2CCC1C2` (stereo not shown) [BCH], the “effect of transport inhibitor on rucaparib uptake” value (shortened to “effect of transport inhibitor”) with SW620 cells (setting [15]) is “neither the nucleoside transport inhibitor, dipyridamole, nor the amino-acid transport inhibitor, BCH, inhibited accumulation”.

On to `Cn1ncnc1[C@H]1c2n[nH]c(=O)c3cc(F)cc(c23)N[C@@H]1c1ccc(F)cc1` [BMN 673], for which the “efficacy against MX-1 xenografts” value with MX-1 xenografts [4] (once or twice daily administration) was “regressions of MX-1 xenografts”.

`C[C@@H]1O[C@@H](O[C@H]2C[C@@H](O)[C@]3(CO)[C@H]4[C@H](O)C[C@]5(C)[C@@H](C6=CC(=O)OC6)CC[C@]5(O)[C@@H]4CC[C@]3(O)C2)[C@H](O)[C@H](O)[C@H]1O` [Ouabain]: the “effect of transport inhibitor” value with SW620 cells (setting [15]) is on record as “only a very modest effect”.

Regarding `C=C1[C@@H](C)[C@H]2[C@H](Cc3ccccc3)NC(=O)[C@]23OC(=O)/C=C/[C@H](O)CCC[C@@H](C)C/C=C/[C@H]3[C@@H]1O` [cytochalasin B], the “effect of transport inhibitor” value in the data set with SW620 cells (setting [15]) is on record as “no effect on uptake”.

As to `OCCN(CCO)c1nc(N2CCCCC2)c2nc(N(CCO)CCO)nc(N3CCCCC3)c2n1` [dipyridamole], the “effect of transport inhibitor” value with SW620 cells (setting [15]) is given as “neither the nucleoside transport inhibitor, dipyridamole, nor the amino-acid transport inhibitor, BCH, inhibited accumulation”.

Take `O=C(c1cc(Cc2n[nH]c(=O)c3ccccc23)ccc1F)N1CCN(C(=O)C2CC2)CC1` [olaparib]: the “efficacy against MX-1 xenografts” value in the data set with MX-1 xenografts [4] (100 mg kg−1 daily for 28 days) is listed as “completely ineffective”.

With `CNCc1ccc(-c2[nH]c3cc(F)cc4c3c2CCNC4=O)cc1` [rucaparib], the dose linearity entry in [1] (mice) is listed as “apparent dose linearity”. In [1] (oral rucaparib), the “rucaparib in tumour at 3 days” value is recorded as “still detectable in most mice”. For the same compound, the “time at which parent drug detectable in plasma” value in [1] (single dose 10 mg kg−1 i.p., all three mice per group) was 30 min. In addition, the “time up to which parent drug detectable in plasma” value in data set [1] (single dose 50–150 mg kg−1 p.o., all three mice per group) is on record as “up to 4 h”. In addition, the half-life in [5] is 20 min. For the same compound, in the data set with SW620 cells (SW620 cells after 30-min pulse with 400 nM), the “rucaparib lost by efflux in the first 5–10 min” value is “up to 50%”. In the data set with SW620 cells (SW620 cells exposed to 400 nM [14C]rucaparib, steady state), this compound gave an intracellular concentration of more than 10 µM. Further, the “time to steady-state intracellular level” value with SW620 cells (setting [15]) is given as not above 30 min. Moreover, the “Vmax of rucaparib uptake” value in the data set with SW620 cells (SW620 cells, 30 min exposure, mean and s.d. of three independent experiments) is 469±22 pmol per 10^6 cells per 10 min. In addition, in the data set with SW620 cells (SW620 cells, transport buffer), the “uptake with sodium buffer replaced by potassium buffer” value is recorded as “reduced uptake slightly”. For the same compound, in the data set with SW620 cells (SW620 cells, transport buffer), the “uptake with sodium replaced by choline” value is on record as “no effect”. Also, the “PARP inhibition in MX-1 tumours” value in data set [6] (24 h after single dose 50 mg kg−1 i.p.) was more than 55%; in data set [6] (24 h after single dose 150 mg kg−1 p.o.) it was more than 80%; in data set [6] (3 days after 150 mg kg−1), 87–92%; in data set [6] (7 days after 150 mg kg−1), 44–74%. The “PARP inhibition in livers” value in data set [7] was “not in the livers; also recorded: recovered completely within 24 h”. Moreover, the partial regressions entry in the data set on Capan-1 xenografts [8] (setting [16]) was “two persistent partial regressions”. For the same compound, in the data set with Capan-1 xenografts [8] (setting [16]), the “time to quadruple in volume (RTV4)” value was “not reached during the 50-day trial”. Also, the Complete regressions in the data set with Capan-1 xenografts [8] (10 mg kg−1 i.p., d × 5 w × 6) is 1/10; with Capan-1 xenografts [8] (10 mg kg−1 i.p., d × 5 w × 6, listed as Rucaparib) it was “one complete tumour regression”; in the data set with Capan-1 xenografts [8] (50 mg kg−1 p.o., d × 5 w × 6) it was 0/10; in the data set with Capan-1 xenografts [8] (150 mg kg−1 p.o., 1 × w × 6), “three complete regressions and 3/10”; with Capan-1 xenografts [8] (150 mg kg−1 p.o., 3 × w × 6), 1/10; in the data set on Capan-1 xenografts [8] (150 mg kg−1 p.o., d × 5 w × 6), 1/10. Also, the Complete regressions with Capan-1 xenografts [8] (150 mg kg−1 p.o., dx5 every 3w) was 1/10. Also, the “Mice remaining at day 40” value in the data set on Capan-1 xenografts [8] (10 mg kg−1 i.p., d × 5 w × 6) worked out at 6; with Capan-1 xenografts [8] (50 mg kg−1 p.o., d × 5 w × 6), 2; in the data set with Capan-1 xenografts [8] (150 mg kg−1 p.o., 1 × w × 6) it was 7; in the data set with Capan-1 xenografts [8] (150 mg kg−1 p.o., 3 × w × 6), 5; with Capan-1 xenografts [8] (150 mg kg−1 p.o., d × 5 w × 6), 5; with Capan-1 xenografts [8] (150 mg kg−1 p.o., dx5 every 3w), 5. In addition, the “effect on tumour growth” value is reported as “equivalent effect on tumour growth to 10 mg kg^−1 i.p” in the data set on Capan-1 xenografts [8] (150 mg kg−1 p.o. daily × five weekly × six) and “only marginal effect on tumour growth” in the data set on Capan-1 xenografts [8] (other dosing schedules incl. 150 mg kg−1 p.o. daily for five days every 3 weeks). The “antitumour effect of once weekly schedule” value in the data set on Capan-1 xenografts [8] (150 mg kg−1 p.o. once a week for 6 weeks, compared with other schedules) is “as effective as; also recorded: greatest antitumour effect”. Moreover, the weight loss result in the data set on Capan-1 xenografts [8] (Capan-1 tumour-bearing mice, any of the schedules) is listed as “no significant weight loss”. Moreover, in the data set with Capan-1 xenografts [9], the “efficacy of daily for 5 days every week for 6 weeks vs once a day for 10 days” value was “more effective”. Besides, the “weight loss at nadir” value in the data set with MX-1 xenografts [10] is not above 4%. For the same compound, at PARP [11], the “PARP activity in peripheral blood mononuclear cells” value was “still suppressed 3 days after the final of five daily doses”. For the same compound, the figures for the “PARP inhibition in Capan-1 tumours” value in data set [12] (7 days following single dose 10 mg kg−1 i.p.) and in data set [12] (7 days following single dose 150 mg kg−1 p.o.) were 70% and 90%, respectively. The “PARP activity in tumours, % of control” value in data set [12] (single dose 50 mg kg−1 p.o.) and in data set [12] (single dose 150 mg kg−1 p.o.) was approximately 10% each time. Further, the “PARP activity in tumours, % of baseline” value is recorded as approximately 30% in [12] (after 48 h, 10 mg kg−1 i.p.); less than 20% in data set [12] (between 30 min and 24 h, all doses and routes (10 mg kg−1 i.p.; 50, 100, 150 mg kg−1 p.o.)). Also, the “PARP activity in PBMCs, % of control” value in data set [13] (24 h after single dose 10 mg kg−1 i.p.) is on record as more than 35%. Moreover, in data set [13] (CAPAN-1, mouse, ip, read-out: initial PARP inhibition in brain), the inhibition at 10 mg/kg was approximately 50%. The “reduction in brain PARP activity” value in data set [13] (oral dosage, 4 h) is more than 60%. In addition, the “brain PARP activity after recovery, % of baseline” value in data set [13] (oral dosage, after 4 h up to 7 days) is listed as 70–80%. In data set [13] (single dose 10 mg kg−1 i.p.), the “PARP activity in PBMCs up to 6 h post-administration” value is “profound suppression”. Besides, the “PARP activity 1 week after drug removal” value in data set [14] (setting [17]) is recorded as “still below baseline”. Moreover, the “persistence of PARP inhibition after pulse” value in data set [14] (setting [17]) came to 72 h. In addition, the remaining activity at 0.4 µM in data set [14] (SW-620, read-out: PARP activity, % of control) was 35 ± 12%. In [14] (read-out: PARP inhibition, human cancer cell lines (SW620, Capan-1, MX-1), for at least 72 h after 30-min pulse of 400 nM), the inhibition at 0.4 µM was not below 50%. The “PARP activity below baseline 1 week after initial exposure” value in data set [14] (where measured, 30-min pulse) is not below 30%.
